Among the test systems are SK-MEL-5 melanoma; HL-60(TB) leukemia; MDA-MB-231 breast; OVCAR-5 ovarian; SR leukemia; MCF7 breast; UACC-62 melanoma; CAKI-1 renal.
Experiment in all cases: NCI anticancer screen, dose series, 48 h

Structures are written as SMILES.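 Exposure lasted 48 hours, with cells grown in 96-well plates and compounds tested at five concentrations. GI50 is the concentration that inhibits growth by half. Definition used: TGI = concentration required for complete inhibition of growth.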

With `O=Nc1c(-c2cccc([N+](=O)[O-])c2)nc2cnccn12`, the TGI was more than 100 µM in the test with SK-MEL-5 melanoma; more than 100 µM in the test with HL-60(TB) leukemia; 26.7 µM in the test with MDA-MB-231 breast; 44 µM in the test with OVCAR-5 ovarian; 18.4 µM with SR leukemia; more than 100 µM in the test on MCF7 breast. The TGI is 36.8 µM in the test on UACC-62 melanoma and 43 µM in the test with CAKI-1 renal.

As to `Nc1ccc(-c2nc3ccccc3[nH]2)c(O)c1`, the GI50 was 21.3 µM in the test on SK-MEL-5 melanoma; 40.4 µM in the test with HL-60(TB) leukemia; 17 µM in the test with MDA-MB-231 breast; 36.4 µM in the test on OVCAR-5 ovarian; 26.2 µM in the test on SR leukemia; 30.3 µM in the test on MCF7 breast. Moreover, the GI50 was 25.2 µM with UACC-62 melanoma and 27.1 µM in the test on CAKI-1 renal. Moreover, the TGI with SK-MEL-5 melanoma was 72.3 µM; with HL-60(TB) leukemia, more than 100 µM; with MDA-MB-231 breast it was 47.3 µM; in the test on OVCAR-5 ovarian, more than 100 µM; with SR leukemia it was more than 100 µM; in the test on MCF7 breast it was more than 100 µM. Also, the TGI stood at 95.5 µM in the test with UACC-62 melanoma and 58.1 µM with CAKI-1 renal.

As for `N#Cc1c2ccccc2c2n1-c1ccccc1OC(c1ccccc1)C2=O` (configuration not stated), the GI50 is 1.86 µM in the test with SK-MEL-5 melanoma; 2.83 µM in the test on HL-60(TB) leukemia; 2.78 µM in the test on MDA-MB-231 breast; 5.37 µM in the test on OVCAR-5 ovarian; 3.69 µM with SR leukemia; 3.8 µM in the test on MCF7 breast. Moreover, the GI50 was 3.81 µM in the test with UACC-62 melanoma and 3.16 µM in the test on CAKI-1 renal. In addition, the TGI in the test with SK-MEL-5 melanoma is 3.87 µM; in the test with HL-60(TB) leukemia, 6.03 µM; in the test with MDA-MB-231 breast, 8.99 µM; in the test with OVCAR-5 ovarian, 34 µM; with SR leukemia, 15.6 µM; in the test with MCF7 breast, 14.6 µM. The TGI with UACC-62 melanoma was found to be 18 µM; in the test with CAKI-1 renal it was 13.7 µM.

As to `OCc1cccc(-c2ccc3ncc(-c4nc(NC5CC5)ncc4F)n3c2)c1`, the GI50 in the test with SK-MEL-5 melanoma was 0.275 µM; with HL-60(TB) leukemia, 0.243 µM; in the test with MDA-MB-231 breast, 0.286 µM; in the test with SR leukemia it was 0.0541 µM; in the test with MCF7 breast it was 0.308 µM; in the test with UACC-62 melanoma, 0.248 µM. Also, in the test with CAKI-1 renal, the GI50 was 0.153 µM. Moreover, the TGI was 0.821 µM with SK-MEL-5 melanoma; 0.708 µM in the test with HL-60(TB) leukemia; 1.04 µM in the test with MDA-MB-231 breast; more than 38.9 µM in the test on SR leukemia; 1.19 µM in the test on MCF7 breast; 0.698 µM with UACC-62 melanoma. This compound came in with a TGI in the test on CAKI-1 renal of 1.65 µM.

`CCc1ccc(-c2ccc(=O)n(-c3ccc(S(N)(=O)=O)cc3)n2)cc1`: the GI50 with SK-MEL-5 melanoma was 0.659 µM; in the test on HL-60(TB) leukemia, 0.365 µM; in the test with MDA-MB-231 breast, 14.6 µM; in the test on OVCAR-5 ovarian it was more than 64.4 µM; in the test with SR leukemia, 0.0659 µM; with MCF7 breast, 1.46 µM. Further, the GI50 is 0.84 µM in the test on UACC-62 melanoma and 2.6 µM in the test with CAKI-1 renal. Also, the TGI with SK-MEL-5 melanoma was more than 27.6 µM; in the test on HL-60(TB) leukemia it was 4.18 µM; in the test with MDA-MB-231 breast it was more than 100 µM; with OVCAR-5 ovarian, more than 100 µM; in the test with SR leukemia, 0.497 µM; with MCF7 breast, more than 43.5 µM. For the same compound, the TGI with UACC-62 melanoma and in the test with CAKI-1 renal was more than 100 µM in each case.

`Nc1ccc(N=Nc2ccccc2)c(N)n1`: the GI50 was 26.3 µM in the test with SK-MEL-5 melanoma; 27.5 µM in the test with HL-60(TB) leukemia; 18 µM in the test with MDA-MB-231 breast; 40.3 µM in the test with OVCAR-5 ovarian; 18.1 µM in the test with SR leukemia; 32.6 µM in the test with UACC-62 melanoma. The TGI was more than 100 µM with SK-MEL-5 melanoma; more than 100 µM with HL-60(TB) leukemia; 73.7 µM in the test with MDA-MB-231 breast; more than 100 µM in the test on OVCAR-5 ovarian; more than 100 µM in the test with SR leukemia; more than 100 µM with UACC-62 melanoma.

For the compound `COc1ccc(Nc2ncccc2/C=C/C(=O)c2cc(OC)c(OC)c(OC)c2)cc1`, the GI50 with SK-MEL-5 melanoma was 1.39 µM; with MDA-MB-231 breast, 1.94 µM; in the test with OVCAR-5 ovarian, 1.97 µM; in the test with SR leukemia it was 0.464 µM; with MCF7 breast, 0.695 µM; with UACC-62 melanoma it was 1.56 µM. Also, the GI50 in the test on CAKI-1 renal was 1.52 µM. The TGI came out at 2.68 µM in the test on SK-MEL-5 melanoma; 5.74 µM in the test on MDA-MB-231 breast; 3.83 µM with OVCAR-5 ovarian; 3.98 µM with SR leukemia; 2.09 µM in the test with MCF7 breast; 3.3 µM in the test with UACC-62 melanoma. The same compound showed a TGI in the test on CAKI-1 renal of 3.88 µM.

As for `COc1ccc(-c2nsc3c2NC(=O)CC3c2ccc3c(c2)OCO3)cc1` (configuration not stated), the GI50 in the test with SK-MEL-5 melanoma was 1.46 µM; in the test with HL-60(TB) leukemia, 0.579 µM; with MDA-MB-231 breast, 1.13 µM; with OVCAR-5 ovarian, 3.19 µM; with SR leukemia, 0.401 µM; in the test with MCF7 breast, 0.367 µM. The GI50 is 1.21 µM with UACC-62 melanoma and 0.852 µM with CAKI-1 renal. Further, the TGI with SK-MEL-5 melanoma is 42.2 µM; with HL-60(TB) leukemia, 8.32 µM; with MDA-MB-231 breast, 11.6 µM; in the test with OVCAR-5 ovarian it was more than 100 µM; with SR leukemia, 39.3 µM; in the test with MCF7 breast, more than 100 µM. The TGI with UACC-62 melanoma and in the test on CAKI-1 renal was more than 100 µM in each case.

`Cc1nc2cncc(C#Cc3cncc(C(=O)Nc4ccc(CN5CCN(C)CC5)c(C(F)(F)F)c4)c3)c2nc1C`: the GI50 in the test with SK-MEL-5 melanoma is 0.839 µM; in the test with HL-60(TB) leukemia it was 0.237 µM; with MDA-MB-231 breast, 0.229 µM; in the test with OVCAR-5 ovarian, 0.608 µM; in the test with SR leukemia, 0.46 µM; with MCF7 breast it was 0.841 µM. Moreover, the GI50 is 0.24 µM with UACC-62 melanoma and 0.438 µM with CAKI-1 renal. Also, the TGI in the test with SK-MEL-5 melanoma came to 2.35 µM; with HL-60(TB) leukemia, 1.38 µM; with MDA-MB-231 breast it was 1.03 µM; with OVCAR-5 ovarian, 17.5 µM; with SR leukemia it was 3.81 µM; with MCF7 breast, 6.78 µM. Also, the TGI was 1.47 µM in the test on UACC-62 melanoma and 3.1 µM with CAKI-1 renal.

As for `O=CN1N=C(c2ccc(Nc3ccnc4cc(Cl)ccc34)cc2)CC1c1ccccc1` (configuration not stated), the GI50 in the test on SK-MEL-5 melanoma is 1.38 µM; in the test with HL-60(TB) leukemia it was 2.66 µM; in the test with MDA-MB-231 breast, 2.43 µM; in the test on OVCAR-5 ovarian it was 19.8 µM; in the test on SR leukemia, 1.77 µM; with MCF7 breast, 3.42 µM. Moreover, the GI50 was 1.55 µM in the test with UACC-62 melanoma and 3.82 µM with CAKI-1 renal. Also, the TGI with SK-MEL-5 melanoma was 3.77 µM; in the test on HL-60(TB) leukemia it was 6.21 µM; in the test with MDA-MB-231 breast, 13.7 µM; in the test with OVCAR-5 ovarian, more than 100 µM; in the test on SR leukemia it was 4.9 µM; with MCF7 breast, 26.7 µM. Besides, the TGI in the test on UACC-62 melanoma came out at 4.16 µM; in the test on CAKI-1 renal, 32.2 µM.

Regarding `ON(CCc1ccncc1)Cc1ccccc1`, the TGI in the test on SK-MEL-5 melanoma, in the test with OVCAR-5 ovarian, in the test with SR leukemia, in the test with MCF7 breast, in the test on UACC-62 melanoma and in the test on CAKI-1 renal was more than 100 µM throughout.

Take `C=C1C(=O)O[C@H]2[C@H]1CC/C(CNS(=O)(=O)c1ccc3ccccc3c1)=C\CC[C@@]1(C)O[C@@H]21`: the GI50 in the test with SK-MEL-5 melanoma is 2.89 µM; in the test on HL-60(TB) leukemia, 1.63 µM; in the test with MDA-MB-231 breast, 2.15 µM; with OVCAR-5 ovarian, 1.99 µM; with SR leukemia it was 1.23 µM; in the test with MCF7 breast it was 0.943 µM. Also, the GI50 in the test on UACC-62 melanoma is 1.64 µM. The TGI turned out to be 9.67 µM in the test on SK-MEL-5 melanoma; 3.96 µM in the test with HL-60(TB) leukemia; 5.36 µM in the test on MDA-MB-231 breast; 4.82 µM in the test on OVCAR-5 ovarian; 7.12 µM with SR leukemia; 2.62 µM in the test on MCF7 breast. In the test with UACC-62 melanoma, this compound registered a TGI of 4.01 µM.

In the case of `C=C1C(=O)O[C@H]2[C@H]1CC/C(CNC(=O)/C=C/c1cccc(OC)c1)=C\CC[C@@]1(C)O[C@@H]21`, the GI50 in the test on SK-MEL-5 melanoma is 1.69 µM; in the test with MDA-MB-231 breast, 1.79 µM; with OVCAR-5 ovarian, 2.05 µM; with SR leukemia it was 0.537 µM; in the test with UACC-62 melanoma, 1.43 µM; in the test with CAKI-1 renal it was 1.31 µM. Also, the TGI was 3.18 µM with SK-MEL-5 melanoma; 4.07 µM in the test with MDA-MB-231 breast; 5.36 µM in the test on OVCAR-5 ovarian; 10.5 µM in the test with SR leukemia; 2.92 µM in the test with UACC-62 melanoma; 2.68 µM with CAKI-1 renal.

With `CN(C)/C=C/c1nnnn1-c1ccc(Cl)cc1`, the GI50 in the test with SK-MEL-5 melanoma is 15 µM; with MDA-MB-231 breast it was 16.1 µM; in the test on OVCAR-5 ovarian it was 24.7 µM; in the test on SR leukemia it was 3.35 µM; in the test with MCF7 breast it was 6.03 µM; in the test with UACC-62 melanoma, 8.22 µM. Moreover, the TGI in the test with SK-MEL-5 melanoma is 35.4 µM; with MDA-MB-231 breast it was more than 100 µM; in the test with OVCAR-5 ovarian, 55.4 µM; with SR leukemia, 29.6 µM; with MCF7 breast, 24.8 µM; with UACC-62 melanoma it was 31.4 µM.

Consider `O=[N+]([O-])c1cc(O)c(O)cc1-c1cn2ccsc2n1`, for which the GI50 with SK-MEL-5 melanoma was 16.3 µM; with MDA-MB-231 breast it was 59.2 µM; in the test on OVCAR-5 ovarian, more than 100 µM; with SR leukemia, 41.3 µM; in the test on MCF7 breast it was 52.7 µM; in the test on UACC-62 melanoma it was 54.2 µM. The GI50 with CAKI-1 renal is 38.4 µM. Besides, the TGI with SK-MEL-5 melanoma is 54.8 µM; with MDA-MB-231 breast, more than 100 µM; with OVCAR-5 ovarian it was more than 100 µM; in the test on SR leukemia, more than 100 µM; with MCF7 breast, more than 100 µM; in the test with UACC-62 melanoma it was more than 100 µM. The TGI in the test with CAKI-1 renal was more than 100 µM.

The values above are taken from PubChem BioAssay (NCI).
